{"source": "paper PMC6853638", "about": "“TMC1 is an essential component of a leak channel that modulates tonotopy and excitability of auditory hair cells in mice” (eLife, 2019)", "key": {"[1]": {"molecular_target": "T1, cysteine-substituted TMC1 constructs (Mus musculus, UniProt Q8R4P5, T532C)", "T1 construct": "control full-length TMC1 (TMC1_WT); expressed in transfected cells; host or cells: Tmc1-knockout mouse OHCs, injectoporation", "T1 sequence (Q8R4P5 1-757 T532C)": "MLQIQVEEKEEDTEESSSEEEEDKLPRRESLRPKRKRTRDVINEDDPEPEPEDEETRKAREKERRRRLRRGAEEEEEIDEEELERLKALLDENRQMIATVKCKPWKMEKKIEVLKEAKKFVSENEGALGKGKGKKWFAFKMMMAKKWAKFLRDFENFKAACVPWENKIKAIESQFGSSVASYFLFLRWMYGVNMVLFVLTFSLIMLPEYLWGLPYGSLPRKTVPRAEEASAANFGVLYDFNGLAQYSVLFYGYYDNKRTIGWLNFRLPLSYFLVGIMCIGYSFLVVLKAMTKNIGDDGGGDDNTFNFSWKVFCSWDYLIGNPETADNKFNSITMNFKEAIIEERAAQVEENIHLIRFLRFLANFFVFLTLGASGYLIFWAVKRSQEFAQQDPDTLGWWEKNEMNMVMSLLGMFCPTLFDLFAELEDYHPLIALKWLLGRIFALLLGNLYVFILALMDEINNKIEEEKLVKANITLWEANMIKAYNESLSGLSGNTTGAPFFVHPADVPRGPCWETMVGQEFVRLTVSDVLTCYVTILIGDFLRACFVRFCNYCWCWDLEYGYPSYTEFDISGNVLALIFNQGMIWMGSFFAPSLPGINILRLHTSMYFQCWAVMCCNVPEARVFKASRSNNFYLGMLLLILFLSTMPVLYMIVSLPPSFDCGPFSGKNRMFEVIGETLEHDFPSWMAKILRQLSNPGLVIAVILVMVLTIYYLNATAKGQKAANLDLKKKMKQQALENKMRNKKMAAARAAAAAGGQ", "test": "Background current before and after MTSET treatment in Tmc1-knockout OHCs expressing cysteine-substituted TMC1", "type": "cell-based", "settings": "Tmc1-knockout OHCs expressing TMC1-T532C, individual cells", "procedure": "(§1) Mouse Tmc1 and Tmc2 cDNAs were cloned into CMV-Script and pCDNA3.1- vectors, respectively. To obtain the Tmc1-deafness vector and amino-acid-substituted Tmc1 constructs, specific primers were designed and used for PCR (Supplementary File 1). […] In brief, the organ of Corti was isolated from P3 mice and cut into three pieces in Dulbecco’s modified Eagle’s medium/F12 with 1.5 μg/ml ampicillin. For electroporation, a glass pipette (2 μm tip diameter) was used to deliver cDNA plasmids (0.2 μg/μl in 1 × Hanks' balanced salt solution) to hair cells in the sensory epithelium. EGFP was used as an indicator for the selection of transfected hair cells. A series of three pulses at 60 V lasting 15 ms at 1 s intervals was applied to cochlear tissues by an electroporator (ECM Gemini X2, BTX, CA). The cochlear tissues were cultured for 1 day in vitro and then used for electrophysiological recording.\n(§2) All experiments were performed at room temperature (20–25°C). Briefly, the basilar membrane with hair cells was acutely dissected from neonatal mice. […] The acutely isolated or cultured basilar membrane was used for electrophysiological recording within 1 h. […] Hair cells were recorded with a patch-clamp amplifier (EPC 10 USB and Patchmaster software, HEKA Elektronik, Lambrecht/Pfalz, Germany).\n(§3) The sampling rate was 1 kHz for leak current recording, 50 kHz for the IV protocol and current-clamp recording, and 100 kHz for unitary channel recording. The voltage-clamp used a –70 mV holding potential, and the current-clamp was held at 0 pA. Only recordings with a current baseline <20 pA in NMDG solution were used for statistical analysis."}, "[2]": {"molecular_target": "T2, cysteine-substituted TMC1 constructs (Mus musculus, UniProt Q8R4P5, D569C)", "T2 construct": "control full-length TMC1 (TMC1_WT); expressed in transfected cells; host or cells: Tmc1-knockout mouse OHCs, injectoporation", "T2 sequence (Q8R4P5 1-757 D569C)": "T1 sequence (Q8R4P5 1-757 T532C) with C532T, D569C", "test": "Background current before and after MTSET treatment in Tmc1-knockout OHCs expressing cysteine-substituted TMC1", "type": "cell-based", "settings": "Tmc1-knockout OHCs expressing TMC1-D569C, individual cells", "procedure": "as §1, §2, §3"}}, "note": "Changes are numbered by the printed parent chain. Values joined by “and” are separate entries in the source; they are usually repeats but may differ in a detail not shown here. Equal entries are not always repeated."}
{"smiles": "C[N+](C)(C)CCSS(C)(=O)=O.[Br-]", "note": "[MTSET, 2-(trimethylammonium)ethyl methanethiosulfonate, bromide]", "values": [{"measurement": "amplitude of the background current after MTSET treatment", "setting": "[1]", "value": "-61.9555 and -32.5794 and -12.1284 and -34.0535 and -31.604"}, {"measurement": "amplitude of the background current after MTSET treatment", "setting": "[2]", "value": "-25.3123 and -14.3715 and -14.7309 and -35.792"}]}
